{"source": "paper PMC11982498", "about": "(Redox Biology, 2025)", "key": {"[1]": {"test_system": "bEnd.3 in vitro BBB model", "test": "Measurement of in vitro BBB transport (bEnd.3 transwell)", "type": "in vitro ADME", "protocol": "bEnd.3 (10 × 10^4 cells/well) was cultured in the upper chamber of a 12 wells-plate within a transwell system. The transepithelial electrical resistance (TEER) was measured to monitor the tightness of the monolayer, and the monolayer of cells with a minimum of 200 Ω cm^2 was used for further experiments."}, "[2]": {"test_system": "BCL-2 IM", "test": "FRET fluorescence titration of double-labeled DNA", "type": "binding", "conditions": "pH 6.2", "protocol": "Figure S3. Biophysical experiments were performed for binding of acridine derivative to BCL-2 promoter i-motif and other DNA structures. (A-C) SPR experiments were performed for binding of B14 to ILPR promoter i-motif, (G2C4)6 promoter i-motif, and HRAS promoter i-motif. Bio-ILPR, bio-(G2C4)6, and bio-HRAS were annealed in MES buffer at pH 5.5. (D) FRET experiment was performed for pH-dependent fluorescence change of BCL-2 promoter i-motif dual labeled with FAM and TAMRA at the 5´-end and 3´-end, respectively. […] (E) Dose-dependent fluorescence spectra changes at 516 nm for various dual labeled C-rich oligomers (representing i-motifs from promoters of BCL-2, C-KIT, C-MYC, C-JUN and TEL-C DNA) were measured with addition of increasing amount of B14. […] All the experiments were repeated for three times.\nThe oligonucleotides with fluorescent 5´-FAM and 3′-TAMRA labeling at concentration of 100 nM in 1 × BPES buffer were annealed by heating at 95 °C for 5 min followed by cooling to room temperature. The spectra from 500 nm to 700 nm of 100 μL mixture with addition of different equivalent compounds at 25 °C were recorded based on fluorescence emission (λex = 480 nm)."}, "[3]": {"test_system": "BCL-2 G4", "test": "ESI-MS with BCL-2 G4", "type": "binding", "conditions": "pH 7.4", "protocol": "The oligomer for BCL-2 promoter […] at concentration of 5 μM was annealed in 1 × BPES buffer with or without 20 μM B14 at 95 °C for 5 min, followed by cooling to room temperature. Mass spectrometry signals were collected by using ESI-MS (Thermo, LCQ DECA Plus XP) and analyzed by using pro-mass.\n(§1) Figure S5. ESI-MS, UV, CD, and EMSA experiments were performed to examine the effect of B14 on BCL-2 promoter i-motif and G-quadruplex. (A) ESI-MS experiment for oligomer BCL-2 G4 alone, which was annealed in 1 × BPES buffer at pH 7.4. (B) ESI-MS experiment for above oligomer BCL-2 G4 with addition of B14 in 1 × BPES buffer at pH 7.4. (C-D) TO displacement with increasing amount of oligomer BCL-2 i-motif annealed in 1 X BPES buffer at pH 5.5 in the presence of 20 equivalents of B14 or A22. (E) EMSA experiment was performed for the effect of B14 on inducing BCL-2 i-motif formation. The lanes from left to right were as follow: BCL-2 i-motif alone at pH 5.5; BCL-2 i-motif alone at pH 6.2; BCL-2 i-motif plus 1 eq B14 at pH 6.2; BCL-2 i-motif plus 5 eq B14 at pH 6.2; BCL-2 i-motif plus 10 eq B14 at pH 6.2. (F) CD experiment was performed to study the interaction of B14 or A22 with BCL-2 promoter i-motif."}, "[4]": {"test_system": "APP/PS1 transgenic mice", "test": "Morris water maze (MWM)", "type": "in vivo", "conditions": "B14 10, 20, 40 mg/kg i.p. every other day; vs model group", "description": "Five months old male APP/PS1 mice, weighing 25–33 g, were purchased from Guangdong Medical Laboratory Animal Center and housed in the Laboratory Animal Center of Sun Yat-sen University (Guangzhou, China) for experimentation. All procedures were approved by the Animal Care and Use Committee of Sun Yat-sen University and complied with legal requirements and national guidelines for the care and maintenance of laboratory animals (Approval No. SYSU-IACUC-2024-002032). The mice were housed in a specific pathogen-free environment with a controlled temperature of 22 ± 1 °C and a 12-h dark/light cycle. The mice were fed with a standard diet, and 30 mice were randomly divided into 6 groups (N = 5). Compound B14 was dissolved in saline and administered at doses of 10, 20, or 40 mg/kg. […]\nThe spatial memory and learning abilities of the mice were assessed using Morris water maze (MWM), novel object recognition (NOR) and nesting experiments (NBT). The anxiety and depressive behaviors were evaluated through the open field test (OFT) and elevated plus maze (EPM). […]\nMorris water maze (MWM) system consisted of a heated circular pool, a target platform, and a video capture with analysis system. […] The time taken to find the platform (latency) was recorded. […] The platform was removed, and the mice were monitored for 60 seconds. […]"}, "[5]": {"target": "BCL-2 G-quadruplex (BCL-2 G4)", "test": "MST binding to BCL-2 G-quadruplex", "conditions": "Tris-HCl buffer pH 7.4", "protocol": "After incubation of DNA with compound for 60 min, the sample was loaded in MST-grade glass capillaries. The intensity of the LED power was set at 20 %, and the MST laser was set at 40 %. The analyses were performed using a Monolith NT.115, and the fitting curve was obtained by using NT Analysis 1.5.41 via Hill fitting. The KD value represents the numeric equivalent of the concentration of B14 when the response is half of the plateau response (Rmax) of the fitting curve."}, "[6]": {"test_system": "BCL-2 promoter C-rich sequence", "test": "EMSA of BCL-2 i-motif formation", "type": "binding", "conditions": "pH 6.2; 1, 5, 10 eq", "protocol": "as §1\nThe DNA oligonucleotides were diluted to 5 μM with 1 × BPES buffer at pH 5.5 or pH 6.2, and different equivalents of compound were added. The mixtures were annealed at 95 °C for 10 min, gradually cooled to room temperature, and incubated at 4 °C overnight. Electrophoresis was carried out using 20% acrylamide Native PAGE (pH 6.4) with 1 × Tris-borate-EDTA (TBE) as running buffer (pH 6.4) at 80 V for 7 h at 4 °C. The gels were then silver-stained and photographed."}}}
{"smiles": "O=C(CCN1CCOCC1)Nc1ccc2c(c1)c(=O)c1cc(NC(=O)CCN3CCOCC3)ccc1n2-c1ccc2occc2c1", "note": "[Compound B14]", "values": [{"measurement": "Permeability", "setting": "[1]; 6 h", "value": 45.80, "unit": "%"}, {"measurement": "Permeability", "setting": "[1]; 24 h", "value": 55.74, "unit": "%"}, {"measurement": "fluorescence response of double-labeled DNA", "setting": "[2]", "value": "dose-dependent effect on the fluorescence of BCL-2 IM"}, {"measurement": "adduct peak in ESI-MS", "setting": "[3]", "value": "no corresponding binding peak appeared"}, {"measurement": "escape latency (MWM)", "setting": "[4]", "value": "significantly short"}, {"measurement": "number for the mice to cross the platform (MWM)", "setting": "[4]", "value": "significantly increased"}, {"measurement": "Kd", "setting": "[5]", "value": 59.8, "unit": "µM"}, {"measurement": "i-motif migration band (EMSA)", "setting": "[6]", "value": "could induce BCL-2 i-motif formation in a dose-dependent manner"}]}
